# Laboratory results taken from patent US10329270B2, “Heteroaryl compounds as BTK inhibitors and uses thereof” (Merck Patent GmbH, priority 2013, dated 2019).
# Tests used:
# full-length human BTK = target: T1, full-length human BTK (Homo sapiens, UniProt Q06187); assay: Assay A: BTK IC50 Enzyme Assay (microfluidic off-chip mobility shift kinase assay); type: biochemical; settings: full-length human BTK, kinKDR peptide substrate, incubated 90 min at 27 C; read-out: Assay A (Time Dependent BTK Enzyme Assay IC50)
# T1 construct: 2.5× stocks of full-length human BTK (08-080); purchased CarnaBio USA, Inc., Natick, Mass; 08-080
# T1 sequence (Q06187 whole entry): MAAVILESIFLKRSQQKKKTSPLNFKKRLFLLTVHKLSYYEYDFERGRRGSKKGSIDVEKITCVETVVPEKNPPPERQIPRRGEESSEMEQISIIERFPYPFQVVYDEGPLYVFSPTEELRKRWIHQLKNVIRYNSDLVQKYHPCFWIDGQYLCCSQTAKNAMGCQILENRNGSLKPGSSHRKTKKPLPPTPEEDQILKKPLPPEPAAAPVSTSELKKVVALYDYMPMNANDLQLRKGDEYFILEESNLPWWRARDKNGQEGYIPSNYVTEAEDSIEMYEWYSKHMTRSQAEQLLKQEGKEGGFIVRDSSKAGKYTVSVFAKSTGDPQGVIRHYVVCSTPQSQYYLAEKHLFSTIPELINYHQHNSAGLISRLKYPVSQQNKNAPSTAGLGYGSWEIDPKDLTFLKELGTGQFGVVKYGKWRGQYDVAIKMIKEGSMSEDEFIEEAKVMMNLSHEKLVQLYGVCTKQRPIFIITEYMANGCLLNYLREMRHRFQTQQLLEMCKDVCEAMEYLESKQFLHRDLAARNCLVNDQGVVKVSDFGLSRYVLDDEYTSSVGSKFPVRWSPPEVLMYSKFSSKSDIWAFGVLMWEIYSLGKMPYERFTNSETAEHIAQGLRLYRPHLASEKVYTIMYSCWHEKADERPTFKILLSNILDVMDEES
# Method in brief: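 Off-chip microfluidic mobility shift assay with full-length human BTK; phosphorylated and unphosphorylated peptide substrate were separated by charge/mass on a LabChip 3000.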
# BTK in human whole blood = target: T2, BTK in human whole blood (Homo sapiens, UniProt Q06187); assay: Assay C: Time Dependent Human Whole Blood IC50 Assay; type: cell-based; settings: read-out: Assay C (Time Dependent Human Whole Blood BTK Enzyme Assay IC50)
# T2 construct: endogenous in cells; host or cells: human whole blood
# T2 sequence (Q06187 whole entry): as above
# Procedure: Assay C: Time Dependent Human Whole Blood IC50 Assay
# Compounds described by embodiments of the present invention were assayed using a human whole blood assay. The data from the same is recorded in Table 2 within the column labeled: “Time Dependent Human Whole Blood BTK Enzyme Assay IC50”.
# PBMC = assay: Assay B: Time Dependent PMBC IC50 Assay; type: cell-based
# Procedure: Assay B: Time Dependent PMBC IC50 Assay
# Compounds described by embodiments of the present invention were assayed using a time dependent PMBC assay. The data from the same is recorded in Table 2 within the column labeled: “Time Dependent PBMC Assay IC50.” These IC50 values are reported in ranges wherein: I<1 uM and II>1 uM.
Structure (SMILES),IC50 (full-length human BTK) [nM],IC50 (BTK in human whole blood) [nM],IC50 (PBMC) [nM]
"C=CC(=O)N[C@H]1CCN(c2ncc(C(N)=O)c(Nc3ccc(C(=O)NC(C)(C)C)cc3)n2)C1 [Compound 139, (S)-2-(3-acrylamidopyrrolidin-1-yl)-4-((4-(tert-butylcarbamoyl)phenyl)amino)pyrimidine-5-carboxamide]",< 100,< 100,< 100
"C=CC(=O)N[C@H]1CCN(c2ccc(C(N)=O)c(Nc3ccc(F)nc3)n2)C1 [Compound 46, 6-((S)-3-Acryloylamino-pyrrolidin-1-yl)-2-(6-fluoro-pyridin-3-ylamino)-nicotinamide]",< 100,1000 to 5000,< 100
"C=CC(=O)N[C@H]1CCN(c2ccc(C(N)=O)c(Nc3ccc(OC)cc3)n2)C1 [Compound 45, 6-((S)-3-Acryloylamino-pyrrolidin-1-yl)-2-(4-methoxy-phenylamino)-nicotinamide]",< 100,100 to 1000,
"C=CC(=O)N1C[C@@H]2C[C@H]1CN2c1ccc(C(N)=O)c(Nc2ccc(CCN3CCCC3)cc2)n1 [Compound 9, 6-((1S,4S)-5-Acryloyl-2,5-diaza-bicyclo[2.2.1]hept-2-yl)-2-[4-(2-pyrrolidin-1-yl-ethyl)-phenylamino]-nicotinamide]",< 100,< 100,< 100
"C=CC(=O)N[C@H]1CCN(c2ccc(C(N)=O)c(Nc3ccc(C(=O)N4CCN(C)CC4)cc3)n2)C1 [Compound 11, (S)-6-(3-acrylamidopyrrolidin-1-yl)-2-((4-(4-methylpiperazine-1 carbonyl)phenyl)amino)nicotinamide]",< 100,100 to 1000,< 100
"C=CC(=O)N[C@H]1CCN(c2nc(Nc3ccc(N4CCC(F)(F)CC4)cc3)c(C(N)=O)cc2F)C1 [Compound 180, 6-((S)-3-Acryloylamino-pyrrolidin-1-yl)-2-[4-(4,4-difluoro-piperidin-1-yl)-phenylamino]-5-fluoro-nicotinamide]",< 100,100 to 1000,< 100
"C=CC(=O)N1CC=C(c2ccc(C(N)=O)c(Oc3ccc(Oc4ccccc4)cc3)n2)CC1 [Compound 69, 1′-acryloyl-6-(4-phenoxyphenoxy)-1′,2′,3′,6′-tetrahydro-[2,4′-bipyridine]-5-carboxamide]",< 100,100 to 1000,< 100
"C=CC(=O)N[C@H]1CCN(c2ccc(C(N)=O)c(Nc3ccc(C(=O)N4CC(C)OC(C)C4)cc3)n2)C1 (stereo partly drawn) [Compound 40, 6-((S)-3-Acryloylamino-pyrrolidin-1-yl)-2-[4-(2,6-dimethyl-morpholine-4-carbonyl)-phenylamino]-nicotinamide]",< 100,,100 to 1000
"C=CC(=O)N[C@H]1CCN(c2nc(Nc3ccc(C(=O)NC(C)(C)C)cc3)c(F)cc2C(N)=O)C1 [Compound 3, (S)-2-(3-acrylamidopyrrolidin-1-yl)-6-((4-(tert-butylcarbamoyl)phenyl)amino)-5-fluoronicotinamide]",< 100,< 100,< 100
"C=CC(=O)N[C@H]1CCN(c2ccc(C(N)=O)c(Nc3ccc(N4CCCCC4)cc3)n2)C1 [Compound 31, 6-((S)-3-Acryloylamino-pyrrolidin-1-yl)-2-(4-piperidin-1-yl-phenylamino)-nicotinamide]",< 100,,100 to 1000
"C=CC(=O)N1CCC2(CCN(c3ccc(C(N)=O)c(Nc4ccc(CCN5CCCC5)cc4)n3)C2)C1 (stereo not shown) [Compound 20, 6-(7-Acryloyl-2,7-diaza-spiro[4.4]non-2-yl)-2-[4-(2-pyrrolidin-1-yl-ethyl)-phenylamino]-nicotinamide]",< 100,,< 100
"C=CC(=O)N1C2C=C(c3ccc(C(N)=O)c(Oc4ccc(Oc5ccccc5)cc4)n3)CC1CC2 (stereo not shown) [Compound 65, 6-(8-Acryloyl-8-aza-bicyclo[3.2.1]oct-2-en-3-yl)-2-(4-phenoxy-phenoxy)-nicotinamide]",< 100,100 to 1000,< 100
"C=CC(=O)N[C@H]1CCN(c2ccc(C(N)=O)c(Nc3ccc(N4C[C@@H](C)O[C@@H](C)C4)nc3)n2)C1 [Compound 37, 6-((S)-3-Acryloylamino-pyrrolidin-1-yl)-2-[6-(cis-2,6-dimethyl-morpholin-4-yl)-pyridin-3-ylamino]-nicotinamide]",< 100,100 to 1000,< 100
"C=CC(=O)N1CC=C(c2ccc(C(N)=O)c(Nc3ccc(CCN4CCCC4)cc3)n2)CC1 [Compound 17, 1′-Acryloyl-6-[4-(2-pyrrolidin-1-yl-ethyl)-phenylamino]-1′,2′,3′,6′-tetrahydro-[2,4′]bipyridinyl-5-carboxylic acid amide]",< 100,,< 100
"C=CC(=O)N[C@H]1CCN(c2nc(Nc3ccc(CCN4CCCC4)cc3)c(C(N)=O)cc2F)C1 [Compound 179, 6-((S)-3-Acryloylamino-pyrrolidin-1-yl)-5-fluoro-2-[4-(2-pyrrolidin-1-yl-ethyl)-phenylamino]-nicotinamide]",< 100,,< 100
"C=CC(=O)N1CCN(c2ccc(C(N)=O)c(Nc3ccc(CCN4CCCC4)cc3)n2)CC1 [Compound 12, 6-(4-Acryloyl-piperazin-1-yl)-2-[4-(2-pyrrolidin-1-yl-ethyl)-phenylamino]-nicotinamide]",< 100,,< 100
"C=CC(=O)N[C@H]1CCN(c2cc(Nc3ccc(C(=O)N4CCOCC4)cc3)c(C(N)=O)cn2)C1 [Compound 108, 6-((S)-3-Acryloylamino-pyrrolidin-1-yl)-4-[4-(morpholine-4-carbonyl)-phenylamino]-nicotinamide]",< 100,,100 to 1000
"C=CC(=O)NC1CN(c2ncc(C(N)=O)c(Oc3ccc(Oc4ccccc4)cc3)n2)C1 [Compound 174, 2-(3-Acryloylamino-azetidin-1-yl)-4-(4-phenoxy-phenoxy)-pyrimidine-5-carboxylic acid amide]",< 100,100 to 1000,< 100
